Reference: paper PMC6896740, “Safety, tolerability, pharmacokinetics, and pharmacodynamics of PF-06650833, a selective interleukin-1 receptor-associated kinase 4 (IRAK4) inhibitor, in single and multiple ascending dose randomized phase 1 studies in healthy subjects” (Arthritis Research & Therapy, 2019)
Like-named read-outs stand apart in the source and are kept apart here.

Experiment: Study 2 (MAD) plasma and urine pharmacokinetics
Type: in vivo, human
Conditions: for AUC: read-out: AUCtau, geometric mean (%CV); for Cmax: read-out: Cmax, geometric mean (%CV); for Tmax: read-out: Tmax, median (range)
Description: Subjects were enrolled sequentially into seven cohorts. Within each cohort, eight subjects and two subjects were randomized to receive PF-06650833 and placebo, respectively. Doses for all cohorts were administered after a standard (not high-fat) meal. Multiple dosing regimens (once daily [QD] 24 h apart, twice daily [BID] 12 h apart, three times per day [TID] 8 h apart, and four times per day [QID] 6 h apart) were used to provide required total daily doses. In the final dosing scheme, multiple oral doses of PF-06650833 IR suspension formulations at 25, 100, 250, and 750 mg BID and 1000 mg QID were administered in cohorts 1–5. PF-06650833 IR 330 mg TID (cohort 6) and an MR tablet at a dose of 300 mg QD (cohort 7) were also evaluated (see Fig. 1b for final dosing scheme).
For both studies, samples of blood (and urine in study 2) were taken for evaluation of PK/PD parameters (see Additional file 1: Supplemental Methods). PK samples were obtained at the nominal time relative to dosing (± 10%). Plasma and urine samples were analyzed using validated, sensitive, and specific liquid chromatography tandem mass spectrometric methods (at Pfizer Inc., Groton, CT, USA, for study 1 and at Worldwide Pharmacokinetics, Dynamics and Metabolism, Cambridge, MA, USA, for study 2). The lower limit of quantification for PF-06650833 in plasma was 0.0500 ng/mL. The lower limit of quantification for PF-06650833 in urine was 1.00 ng/mL. Serum samples were also analyzed for hsCRP, and plasma samples were analyzed for 4β-hydroxycholesterol and cholesterol.
PK parameters were calculated using non-compartmental analysis of concentration-time data. For study 1 only, data from cohort 1 (period 4 [IR 30 mg] versus period 5 [IR 30 mg + food]) and cohort 3 (period 2 [MR 30 mg] versus period 3 [MR 30 mg + food]) were used to estimate the effect of food intake. Cmax and AUC were calculated for each subject and treatment, with and without food, after which a within-subject difference could be found between fed (high-fat meal) and fasted doses. Analysis of covariance was used to model these within-subject differences and to calculate 95% confidence intervals (CIs) for the differences for each dose (IR 30 mg and MR 30 mg). For study 2 only, the amounts of PF-06650833 in urine and renal clearance were listed and summarized descriptively. As part of the routine safety laboratory monitoring, the presence of any atypical crystals in urine specimens was semi-quantitatively assessed microscopically by typical histopathologic methods and scored as numbers of crystals per high power field (hpf); higher abundance (moderate or many) was defined as ≥ 15/hpf. No formal interim analyses were conducted.
22 In Study 2, pre-dose blood samples were collected for PK analysis on days 1, 2, 4, 7, 10, and
23 14. Post-dose samples were collected for PK analysis on days 1 and 14 at 0.5, 1, 2, 4, 6, 8, 10,
24 12, and 16 hours post-dose; on day 7 at 1, 2, 4, 6, 8, and 12 hours post-dose; and on days 15,
27 hours post-dose. […]
32 Blood samples (2 mL, to obtain ≥0.5 mL plasma) were collected in K2EDTA tubes
33 (dipotassium ethylenediaminetetraacetic acid) and centrifuged at ~1700 x g for 10 minutes at
34 4 °C, with plasma then stored in polypropylene tubes at -70 °C within 1 hour of collection.
35 Plasma samples were analyzed using a validated, sensitive , and specific liquid
36 chromatography tandem mass spectrometric method (LC -MS; at Pfizer Inc, Groton, CT, USA
37 for Study 1; and at Worldwide Pharmaco kinetics, Dynamics, and Metabolism, Cambridge,
38 MA, USA for Study 2). The lower limit of quantification (LLOQ) for PF-06650833 in plasma
39 was 0.0500 ng/mL. Between-day assay accuracy values were also calculated (not shown).
40 In Study 2 only, urine samples we re collected in aliquots pre-dose. Cumulative 0–12-hour
41 and 12–24-hour urine samples were also collected as follows: from day 1 after morning
42 dosing to day 2 before morning dosing (and before breakfast) for cohorts 6 –8 only; and from […]

[1] = IR 25 mg BID, day 14, fed (standard meal)
[2] = IR 100 mg BID, day 14, fed (standard meal)
[3] = IR 250 mg BID, day 14, fed (standard meal)
[4] = IR 330 mg TID, day 14, fed (standard meal)
[5] = IR 750 mg BID, day 14, fed (standard meal)
[6] = MR 300 mg QD, day 14, fed (standard meal)
[7] = human, plasma, oral, 25 mg, IR 25 mg BID, day 1, fed (standard meal)
[8] = human, plasma, oral, 25 mg, IR 25 mg BID, day 14, fed (standard meal)
[9] = human, plasma, oral, 100 mg, IR 100 mg BID, day 1, fed (standard meal)
[10] = human, plasma, oral, 100 mg, IR 100 mg BID, day 14, fed (standard meal)
[11] = human, plasma, oral, 250 mg, IR 250 mg BID, day 1, fed (standard meal)
[12] = human, plasma, oral, 250 mg, IR 250 mg BID, day 14, fed (standard meal)
[13] = human, plasma, oral, 300 mg, MR 300 mg QD, day 1, fed (standard meal)
[14] = human, plasma, oral, 300 mg, MR 300 mg QD, day 14, fed (standard meal)
[15] = human, plasma, oral, 330 mg, IR 330 mg TID, day 1, fed (standard meal)
[16] = human, plasma, oral, 330 mg, IR 330 mg TID, day 14, fed (standard meal)
[17] = human, plasma, oral, 750 mg, IR 750 mg BID, day 1, fed (standard meal)
[18] = human, plasma, oral, 750 mg, IR 750 mg BID, day 14, fed (standard meal)
[19] = human, plasma, oral, 1000 mg, IR 1000 mg QID, day 1, fed (standard meal)

SMILES: CC[C@@H]1[C@H](F)C(=O)N[C@@H]1COc1nccc2cc(C(N)=O)c(OC)cc12 [PF-06650833, 1-{[(2S,3S,4S)-3-Ethyl-4-fluoro-5-oxopyrrolidin-2-yl]methoxy}-7-methoxyisoquinoline-6-carboxamide]
- Tmax, median (range) (IR 25 mg BID, day 1, fed (standard meal)): 2.03 (1.00–4.00) h
- Ae24% (drug recovered unchanged in urine up to 24 h), geometric mean (%CV) [1]: 0.7288 (27) %
- CL/F, geometric mean (%CV) [1]: 122.4 (26) L/h
- Cav, geometric mean (%CV) [1]: 17.03 (26) ng/mL
- Cmin, geometric mean (%CV) [1]: 4.064 (46) ng/mL
- PTF (peak-trough fluctuation), geometric mean (%CV) [1]: 1.868 (21)
- Rac (observed accumulation ratio), geometric mean (%CV) [1]: 1.250 (19)
- Ae24% (drug recovered unchanged in urine up to 24 h), geometric mean (%CV) [2]: 0.9414 (29) %
- CL/F, geometric mean (%CV) [2]: 128.9 (16) L/h
- Cav, geometric mean (%CV) [2]: 64.72 (16) ng/mL
- Cmin, geometric mean (%CV) [2]: 14.13 (40) ng/mL
- PTF (peak-trough fluctuation), geometric mean (%CV) [2]: 1.740 (16)
- Rac (observed accumulation ratio), geometric mean (%CV) [2]: 1.373 (23)
- Ae24% (drug recovered unchanged in urine up to 24 h), geometric mean (%CV) [3]: 0.4822 (53) %
- CL/F, geometric mean (%CV) [3]: 183.7 (39) L/h
- Cav, geometric mean (%CV) [3]: 113.3 (39) ng/mL
- Cmin, geometric mean (%CV) [3]: 20.07 (76) ng/mL
- PTF (peak-trough fluctuation), geometric mean (%CV) [3]: 1.911 (14)
- Rac (observed accumulation ratio), geometric mean (%CV) [3]: 1.009 (13)
- Ae24% (drug recovered unchanged in urine up to 24 h), geometric mean (%CV) [4]: 0.6372 (34) %
- CL/F, geometric mean (%CV) [4]: 206.1 (28) L/h
- Cav, geometric mean (%CV) [4]: 200.1 (28) ng/mL
- Cmin, geometric mean (%CV) [4]: 51.48 (68) ng/mL
- PTF (peak-trough fluctuation), geometric mean (%CV) [4]: 1.307 (18)
- Rac (observed accumulation ratio), geometric mean (%CV) [4]: 1.068 (26)
- Ae24% (drug recovered unchanged in urine up to 24 h), geometric mean (%CV) [5]: 0.4885 (24) %
- CL/F, geometric mean (%CV) [5]: 302.9 (24) L/h
- CLr (renal clearance), geometric mean (%CV) [5]: 23.14 (19) mL/min
- Cav, geometric mean (%CV) [5]: 206.3 (24) ng/mL
- Cmin, geometric mean (%CV) [5]: 33.07 (50) ng/mL
- PTF (peak-trough fluctuation), geometric mean (%CV) [5]: 1.868 (12)
- Rac (observed accumulation ratio), geometric mean (%CV) [5]: 0.9377 (32)
- Ae24% (drug recovered unchanged in urine up to 24 h), geometric mean (%CV) [6]: 0.300 (70) %
- CL/F, geometric mean (%CV) [6]: 308.0 (65) L/h
- Cav, geometric mean (%CV) [6]: 40.62 (65) ng/mL
- Cmin, geometric mean (%CV) [6]: 6.471 (55) ng/mL
- PTF (peak-trough fluctuation), geometric mean (%CV) [6]: 3.383 (37)
- Rac (observed accumulation ratio), geometric mean (%CV) [6]: 0.8985 (24)
- Dose recovered unchanged in urine (all dose groups): Less than 1%
- Steady state reached by (all dose groups, based on Cmin): ≤ 4 days
- AUC [7]: 164 ng·h/mL
- Cmax [7]: 30 ng/mL
- Tmax [7]: 2 h
- AUC [8]: 204 ng·h/mL
- Cmax [8]: 36.2 ng/mL
- Tmax [8]: 2 h
- AUC [9]: 566 ng·h/mL
- Cmax [9]: 102 ng/mL
- Tmax [9]: 2.03 h
- AUC [10]: 776 ng·h/mL
- Cmax [10]: 128 ng/mL
- Tmax [10]: 2.02 h
- AUC [11]: 1350 ng·h/mL
- Cmax [11]: 226 ng/mL
- Tmax [11]: 4 h
- AUC [12]: 1360 ng·h/mL
- Cmax [12]: 238 ng/mL
- Tmax [12]: 2.02 h
- AUC [13]: 1150 ng·h/mL
- Cmax [13]: 149 ng/mL
- Tmax [13]: 4 h
- AUC [14]: 975 ng·h/mL
- Cmax [14]: 147 ng/mL
- Tmax [14]: 4 h
- AUC [15]: 1500 ng·h/mL
- Cmax [15]: 309 ng/mL
- Tmax [15]: 2.03 h
- AUC [16]: 1600 ng·h/mL
- Cmax [16]: 318 ng/mL
- Tmax [16]: 2 h
- AUC [17]: 2580 ng·h/mL
- Cmax [17]: 470 ng/mL
- Tmax [17]: 3.12 h
- AUC [18]: 2480 ng·h/mL
- Cmax [18]: 421 ng/mL
- Tmax [18]: 2 h
- AUC [19]: 2010 ng·h/mL
- Cmax [19]: 517 ng/mL
- Tmax [19]: 4 h
- Tmax at 1 day (human, plasma, oral, day 1, range across IR 25 to 1000 mg, standard meal, read-out: Median Tmax): 2 to 4 h
- Tmax at 14 day (human, plasma, oral, day 14, IR formulations, standard meal, read-out: Median Tmax): 2 h
- half-life (human, plasma, oral, range for IR 750 mg BID, IR 330 mg TID, MR 300 mg QD, read-out: Mean half-life at steady state): 25.4 to 31.4 h
- Vd/F (human, plasma, oral, IR 25 mg BID, day 14, fed (standard meal), read-out: Vz/F, geometric mean (%CV)): 9650 L
- Vd/F (human, plasma, oral, IR 100 mg BID, day 14, fed (standard meal), read-out: Vz/F, geometric mean (%CV)): 8060 L
- Vd/F (human, plasma, oral, IR 250 mg BID, day 14, fed (standard meal), read-out: Vz/F, geometric mean (%CV)): 10200 L
- Vd/F (human, plasma, oral, IR 330 mg TID, day 14, fed (standard meal), read-out: Vz/F, geometric mean (%CV)): 10100 L
- Vd/F (human, plasma, oral, IR 750 mg BID, day 14, fed (standard meal), read-out: Vz/F, geometric mean (%CV)): 13200 L
- Vd/F at 14 day (human, plasma, oral, MR 300 mg QD, day 14, fed (standard meal), read-out: Vz/F, geometric mean (%CV)): 11600 L
- Vd at 14 day (human, plasma, oral, range across all dosages, day 14, read-out: Mean volume of distribution): 8060 to 13200 L
- CL renal (human, urine and plasma, oral, 300 mg, MR 300 mg QD, day 14, fed (standard meal), read-out: CLr (renal clearance), geometric mean (%CV)): 15.4 mL/min
- CL renal (human, urine and plasma, oral, 330 mg, IR 330 mg TID, day 14, fed (standard meal), read-out: CLr (renal clearance), geometric mean (%CV)): 18.8 mL/min
- CL renal (human, urine and plasma, oral, range for IR < 750 mg and MR 300 mg, read-out: Renal clearance): 14 to 23 mL/min
- CL renal at 14 day (human, urine, oral, 25 mg, IR 25 mg BID, day 14, fed (standard meal), read-out: CLr (renal clearance), geometric mean (%CV)): 13.6 mL/min
- CL renal at 14 day (human, urine, oral, 100 mg, IR 100 mg BID, day 14, fed (standard meal), read-out: CLr (renal clearance), geometric mean (%CV)): 18.5 mL/min
- CL renal at 14 day (human, urine, oral, 250 mg, IR 250 mg BID, day 14, fed (standard meal), read-out: CLr (renal clearance), geometric mean (%CV)): 13.9 mL/min
- CL renal (human, urine, oral, 750 mg, IR 750 mg BID, day 14, fed (standard meal), read-out: CLr (renal clearance), geometric mean (%CV)): 23 mL/min
- CL renal (human, urine, oral, range for IR 25 mg BID, IR 330 mg TID and MR 300 mg QD, read-out: Renal clearance): 14 to 19 mL/min
